Data taken from patent publication US9738677B2, “Amphotericin B derivative with reduced toxicity” (priority 2014, dated 2017).
Each block holds one molecule with its values, some of them ahead of it.

How the values were obtained:
yeast [1] = details: reported by Carreira and coworkers; cited from earlier work
[2] = Chol-containing POPC liposomes, 1 μM; cited from earlier work
[3] = previously found; cited from earlier work
renal cells = assay type: cell-based, human
Description: Cells were imaged using an AMG (Bothell, Wash.) EVOS fl Microscope. Images were taken using transmitted light at 10× objective.
(18) Due to the limited solubility of AmB and its derivatives in the renal cell media, 80 μM is the highest concentration we were able to study. At higher concentrations, the aggregate blocks the light path of the plate reader, giving false high absorbance readings.

[4] = previously found; cited from earlier work; remark: listed apart in the source
yeast [5] = details: previously found; cited from earlier work
[6] = test system: primary human renal proximal tubule epithelial cells; test: WST-8 cell proliferation assay (MTC); assay type: cell-based
Description: WST-8 Cell Proliferation Assays
Primary human renal proximal tubule epithelial cells (RPTECs) were purchased from ATCC (Manassas, Va.) and immediately cultured upon receipt. Complete growth media was prepared using renal epithelial cell basal medium (ATCC, PCS-400-030), renal epithelial cell growth kit (ATCC, PCS-400-040), and penicillin-streptomycin (10 units/mL and 10 μg/mL). Complete media was stored at 4° C. in the dark and used within 28 days. Primary RPTECs were grown in CO2 incubator at 37° C. with an atmosphere of 95% air/5% CO2.
WST-8 cell proliferation assay kit (Ser. No. 10/010,199) was purchased from Cayman Chemical Company (Ann Arbor, Mich.) and stored at −20° C. and used within 6 months of receipt. WST-8 reagent and electron mediator solution were thawed and mixed to prepare the WST-8 reagent solution. The solution was stored at −20° C. and used within one week.
A suspension of primary RPTECs in complete growth media was brought to a concentration of 1×10^5 cells/mL. A 96-well plate was seeded with 99 μL of the cell suspension and incubated at 37° C. with an atmosphere of 95% air/5% CO2 for 3 hours. Positive and negative controls were prepared by seeding with 100 μL of the cell suspension or 100 μL of the complete media. Compounds were prepared as 5 mM (AmB), 20 mM (C2′deOAmB), and 50 mM (C2′epiAmB) stock solutions in DMSO and serially diluted to the following concentrations with DMSO: 50000, 40000, 30000, 20000, 10000, 8000, 6000, 4000, 3000, 2000, 1500, 1000, 800, 600, 400, 300, 200, 100, 50, 25, 10, 5, 2.5, 1, 0.5, 0.25, and 0.1 μM. 1 μL aliquots of each solution were added to the 96-well plate in triplicate, with each column representing a different concentration of the test compound. The 96-well plate was incubated at 37° C. with an atmosphere of 95% air/5% CO2 for 24 hours. […] Following incubation, the 96-well plate was mixed in a shaking incubator at 200 rpm for 1 minute and absorbances were read at 450 nm using a Biotek H1 Synergy Hybrid Reader (Wanooski, Vt.). […]

[7] = ITC sterol binding, POPC LUVs containing 10% cholesterol; details: within the limits of the binding assay
Description: (§1) Isothermal Titration calorimetry (ITC)
(§2) In an optimized isothermal titration calorimetry (ITC)-based assay, an aqueous solution of AmB was titrated with a suspension of large unilamellar vesicles (LUVs) comprised of only 1-palmitoyl-2-oleoyl-sn-glycero-3-phosphocholine (POPC), and the net exotherm was recorded. The titration was repeated using POPC LUVs containing 10% ergosterol. […] The titration was repeated using C2′epiAmB. […] The ITC assay was also conducted with cholesterol in place of ergosterol.
(§3) Experiments were performed using a NanoITC isothermal titration calorimeter (TA Instruments, Wilmington, Del.). Solutions of the compounds to be tested were prepared by diluting a 60.0 mM stock solution of the compound in DMSO to 600 μM with K buffer (5.0 mM HEPES/KHEPES, pH=7.4). The final DMSO concentration in the solution was 1% v/v. Large unilamellar vesicles comprised of only 1-palmitoyl-2-oleoyl-sn-glycero-3-phosphocholine (POPC LUVs) were prepared and phosphorus and ergosterol content was quantified as described below. The LUV solutions were diluted with buffer and DMSO to give a final phospholipid concentration of 12.0 mM in a 1% DMSO/K buffer solution. Immediately prior to use, all solutions were incubated at 37° C. for 30 minutes and degassed under vacuum at 37° C. for 10 minutes. The reference cell of the instrument (volume=0.190 mL) was filled with a solution of 1% v/v DMSO/K buffer.
Palmitoyl oleoyl phosphatidylcholine (POPC) was obtained as a 20 mg/mL solution in CHCl3 from Avanti Polar Lipids (Alabaster, Ala.) and was stored at −20° C. under an atmosphere of dry argon and used within 1 month. A 4 mg/mL solution of ergosterol in CHCl3 was prepared monthly and stored at 4° C. under an atmosphere of dry argon. […]
NanoAnalyze software (TA Instruments) was used for baseline determination and integration of the injection heats, and Microsoft Excel was used for subtraction of dilution heats and the calculation of overall heat evolved. […] By this method, the overall heat evolved during the experiment was calculated using the following formula: […]

human red blood cells = test: Minimum hemolysis concentration (MHC) assay; assay type: cell-based; details: concentration causing 90% hemolysis of human red blood cells, 2 hours, 37° C.
Description: The protocol for the hemolysis assay was adapted from the report of Paquet and coworkers. […] Whole human blood (sodium heparin) was purchased from Bioreclamation LLC (Westbury, N.Y.) and stored at 4° C. and used within two days of receipt. To a 2.0 mL Eppendorf tube, 1 mL of whole human blood was added and centrifuged at 10,000 g for 2 minutes. The supernatant was removed and the erythrocyte pellet was washed with 1 mL of sterile saline and centrifuged at 10,000 g for 2 minutes. The saline wash was repeated for a total of three washes. The erythrocyte pellet was suspended in 1 mL of RBC buffer (10 mM NaH2PO4, 150 mM NaCl, 1 mM MgCl2, pH 7.4) to form the erythrocyte stock suspension.
Positive and negative controls were prepared by adding 1 μL of DMSO to MilliQ water or RBC buffer, respectively to 0.2 mL PCR tube. To each PCR tube, 0.63 μL of the erythrocyte stock suspension was added and mixed by inversion. The samples were incubated at 37° C. for 2 hours. The samples were mixed by inversion and centrifuged at 10,000 g for 2 minutes. 15 μL of the supernatant from each sample was added to a 384-well place. Absorbances were read at 540 nm using a Biotek H1 Synergy Hybrid Reader (Wanooski, Vt.). Experiments were performed in triplicate and the reported MHC represents an average of three experiments.
Percent hemolysis was determined according to the following equation:
[formula] […]

healthy mice = test: Acute toxicity, single intravenous administration, lethality; assay type: in vivo, mouse; details: healthy mice, single intravenous 4 mg/kg
Description: FIG. 8 is a graph depicting lethality in healthy mice resulting from single intravenous administrations in the doses indicated of AmB or C2′epiAmB.
In a separate experiment, acute toxicity was determined by single intravenous administration of AmB or C2′epiAmB to healthy mice, followed by monitoring for lethality.

[8] = ITC sterol binding, POPC LUVs containing 10% ergosterol; details: net exotherm vs sterol-free LUVs
Description: as §1, §2, §3
Palmitoyl oleoyl phosphatidylcholine (POPC) was obtained as a 20 mg/mL solution in CHCl3 from Avanti Polar Lipids (Alabaster, Ala.) and was stored at −20° C. under an atmosphere of dry argon and used within 1 month. […]
Ergosterol content was determined spectrophotometrically. […] The solutions were then analyzed by UV/Vis spectroscopy and the concentration of ergosterol in solution was determined by the extinction coefficient of 10400 L mol^−1 cm^−1 at the UVmax of 282 nm and was compared to the concentration of phosphorus to determine the percent sterol content. The extinction coefficient was determined independently in the above ternary solvent system. […]

SMILES: COC(=O)[C@H]1[C@@H]2C[C@@H](O[C@@H]3O[C@H](C)[C@@H](O)[C@H](N)[C@H]3O)/C=C/C=C/C=C/C=C/C=C/C=C/C=C/[C@H](C)[C@@H](O)[C@@H](C)[C@H](C)OC(=O)C[C@H](O)C[C@H](O)CC[C@@H](O)[C@H](O)C[C@H](O)C[C@](O)(C[C@@H]1O)O2 [C2′epiAmE, C2′epiAmB methyl ester]
Potency in yeast MIC assays compared to AmB (yeast [1]): equipotent to AmB
Efflux of potassium ions [2]: caused efflux of potassium ions

SMILES: C[C@@H]1[C@H](O)[C@@H](C)C=CC=CC=CC=CC=CC=CC=C[C@H](O)C[C@@H]2O[C@](O)(C[C@@H](O)C[C@@H](O)[C@H](O)CC[C@@H](O)C[C@@H](O)CC(=O)O[C@H]1C)C[C@H](O)[C@H]2C(=O)O [AmdeB, amphoteronolide B]
Capacity to bind cholesterol (previous work) [3]: eliminates its capacity to bind both ergosterol and cholesterol
Visual evidence of toxicity in microscope images of renal cells (renal cells): no visual evidence of toxicity
Capacity to bind ergosterol (previous work) [4]: eliminates its capacity to bind both ergosterol and cholesterol
Toxicity to yeast (previous work) (yeast [5]): non-toxic to yeast

Binding to cholesterol (in words) [7]: do not bind cholesterol
SMILES: C[C@@H]1[C@H](O)[C@@H](C)/C=C/C=C/C=C/C=C/C=C/C=C/C=C/[C@H](O[C@H]2C[C@@H](N)[C@H](O)[C@@H](C)O2)C[C@@H]2O[C@](O)(C[C@@H](O)C[C@@H](O)[C@H](O)CC[C@@H](O)C[C@@H](O)CC(=O)O[C@H]1C)C[C@H](O)[C@H]2C(=O)O [C2′deOAmB]
Visual evidence of toxicity in microscope images of renal cells (renal cells): no visual evidence of toxicity
Toxicity to primary human renal proximal tubule epithelial cells (in words) ([6]; up to limits of solubility): no evidence of toxicity up to their limits of solubility

SMILES: C[C@@H]1[C@H](O)[C@@H](C)/C=C/C=C/C=C/C=C/C=C/C=C/C=C/[C@H](O[C@@H]2O[C@H](C)[C@@H](O)[C@H](N)[C@@H]2O)C[C@@H]2O[C@](O)(C[C@@H](O)C[C@@H](O)[C@H](O)CC[C@@H](O)C[C@@H](O)CC(=O)O[C@H]1C)C[C@H](O)[C@H]2C(=O)O [AmB, amphotericin B]
MHC (minimum hemolytic concentration) (human red blood cells): 8.5 µM
MTC (minimum toxic concentration) ([6]; concentration causing 90% loss of cell viability, primary human RPTECs, 24 hours): 2.4 µM
Lethality (healthy mice): died within seconds
Binding to ergosterol (in words) [8]: significant increase in net exotherm
